Reference: patent US7381745B2, “Ligands for metabotropic glutamate receptors and inhibitors of NAALADase” (Georgetown University, priority 1999, dated 2008)
Where “and” joins values, the source holds several entries; their conditions need not be identical. Equal entries are not always repeated. Where two headings read alike, the source gives them in different places. Values belong to the compound of their own block, whether it stands above or below them. Residues, ends and D or L forms follow the SMILES beside them.

Legend:
[1] = target: T1, mGluR3 (Rattus norvegicus, UniProt P31422); experiment: mGluR3 receptor activation (cell lines transfected with mGluRs); assay type: cell-based
T1 construct: expressed in transfected cells
Text: Our studies began from the dipeptide N-acetyl-L-aspartate-L-glutamate (NAAG), a dipeptide that is quite abundant in the brain, and which is believed to act as a transmitter or co-transmitter in the central nervous system, much like glutamate itself. […] 69, 174(1997)]. Recently, a brain enzyme was identified that is specific for the cleavage of N-acetylated α-linked acidic dipeptides, and as a result this enzyme was named NAALADase [J. Biol. Chem., 1987, 262, 14498].

[2] = tested on: NMDA toxicity in cortical neuronal cells; experiment: NMDA toxicity model C: cortical neurons given medium from drug-treated glial cells, LDH release; assay type: cell-based, mice; conditions: for Neuroprotection against NMDA toxicity: model C protocol, 1 μM, LDH at 24 hours
Experimental: (§1) We have tested the validity of these statements using three models of NMDA toxicity in cultures of cortical neurons prepared from fetal mice. The first model (A) consists of using a culture containing neurons without glial cells. NMDA (75 μM) is applied for 10 min without or with the tested compound. Then the culture medium is replaced and cells are left for 24 hours to develop toxicity. The second model (B) involves the use of mice cortical neurons which are seeded on a layer of confluent glial cells (mostly astrocytes) prepared from cerebral cortex of newborn mice. The incubations are identical as in model A. The third model (C) separates the neuronal and glial cultures. Glial cultures are treated with the tested neuroprotective compound in order to induce the release of protective factors into the medium. In parallel, cultures of cortical neurons (without glia) are treated for 10 min with NMDA (20 μM). Then NMDA is washed out and the neurons are treated with the medium collected from the treated glial cells. In all cases toxicity is assessed 24 hours after NMDA treatment by measurements of lactate dehydrogenase (LDH) activity accumulated in the medium during this period of time.
This was done using a published protocol in which cultures of cortical glial cells are first treated with the test compound in order to induce the release of protective factors into the medium. In parallel, cultures of cortical neurons (without glia) are exposed for 10 min to the excitotoxic action of NMDA (20 μM). The NMDA is removed by washing, and the neurons are treated with the medium collected from the treated glial cells. Toxicity is then assessed 24 hours after NMDA treatment by the measurement of lactate dehydrogenase (LDH) activity, which serves as a marker for dying cells. […] Among the potent GCPII inhibitors tested, three compounds [HO2C(CH2)2CH(CO2H)CH2]2P(O)(OH), (S)-Glu-C(O)-(S)Glu, and (S)-Asp-C(O)-(S)Glu produced at 1 μM a similarly modest neuroprotection ranging from 21% to 31%. In contrast, the two Cys-containing compounds, (t-Bu)Cys-C(O)-(S)-Glu and (S)-Cys-C(O)-(S)-Glu, produced 69% and 50% neuroprotection, respectively. While the exact mechanism of this neuroprotective effect cannot be explained based entirely upon GCPII inhibition, these exciting results warrant further study in other models of in vitro toxicity, including the assessment of the compounds' effects in vivo.

[3] = tested on: transient middle cerebral artery occlusion; conditions: cited from earlier work
[4] = tested on: NMDA-induced cell death; conditions: other in vitro models; cited from earlier work
[5] = target: NAALADase (Rattus norvegicus, UniProt P70627); experiment: NAALADase inhibition; assay type: biochemical; conditions: read-out: IC50 as NAALADase inhibitor
[6] = tested on: NMDA toxicity in mixed cultures of cortical neuronal-glial cells; experiment: NMDA toxicity model B: mixed cortical neuronal-glial cultures, LDH release; assay type: cell-based, mice
Experimental: as §1

[7] = target: T2, rat GCPII (Rattus norvegicus, UniProt P70627); conditions: cited from earlier work; for IC50: read-out: IC50 against GCPII
T2 construct: expressed in transfected cells

[8] = target: T1, mGluR3; conditions: cited from earlier work
[9] = target: T2, rat GCPII; experiment: Inhibition of rat GCPII stably expressed in CHO cells; assay type: biochemical; conditions: for IC50: read-out: IC50 against expressed rat GCPII
[10] = tested on: NMDA toxicity in cultures of cortical neurons; experiment: NMDA toxicity model A: cortical neurons without glial cells, LDH release; assay type: cell-based, mice; conditions: 10 μM, NMDA 75 μM
Experimental: as §1

[11] = tested on: U-87 glioblastoma multiforme cells; experiment: Antiangiogenesis in s.c. glioblastoma xenografts (vWF staining); assay type: in vivo; conditions: 100 μM, 0.1 mL once daily into base of xenograft, harvested at 7 days
Experimental: Implanted xenografts were formed by s.c. inoculation with 2×10^6 U-87 glioblastoma multiforme cells mixed with 0.5 mg Matrigel. FN11 was dissolved in PBS to a concentration of either 10 or 100 μM, and injections (0.1 mL) were made once daily into the base of the s.c. implanted xenografts. The starting volumes of the tumors were approximately 250 mm^3. The results from this protocol are depicted in FIG. 15.
Control tumors and tumors grown under the conditions described in Example 21 were harvested at the end of 7 days, fixed in formalin and embedded in paraffin for sectioning. Tissue was stained immunohistochemically for von Willebrand's factor (vWF) to obtain a measure of vascularization. FIGS. 13 and 14 present the results of this protocol for the tumor treated with FN11 at 100 μM. FIG. 13 was taken at low magnification (100×), whereas FIG. 14 was taken at high magnification (400×).

T1 sequence (P31422 23-879): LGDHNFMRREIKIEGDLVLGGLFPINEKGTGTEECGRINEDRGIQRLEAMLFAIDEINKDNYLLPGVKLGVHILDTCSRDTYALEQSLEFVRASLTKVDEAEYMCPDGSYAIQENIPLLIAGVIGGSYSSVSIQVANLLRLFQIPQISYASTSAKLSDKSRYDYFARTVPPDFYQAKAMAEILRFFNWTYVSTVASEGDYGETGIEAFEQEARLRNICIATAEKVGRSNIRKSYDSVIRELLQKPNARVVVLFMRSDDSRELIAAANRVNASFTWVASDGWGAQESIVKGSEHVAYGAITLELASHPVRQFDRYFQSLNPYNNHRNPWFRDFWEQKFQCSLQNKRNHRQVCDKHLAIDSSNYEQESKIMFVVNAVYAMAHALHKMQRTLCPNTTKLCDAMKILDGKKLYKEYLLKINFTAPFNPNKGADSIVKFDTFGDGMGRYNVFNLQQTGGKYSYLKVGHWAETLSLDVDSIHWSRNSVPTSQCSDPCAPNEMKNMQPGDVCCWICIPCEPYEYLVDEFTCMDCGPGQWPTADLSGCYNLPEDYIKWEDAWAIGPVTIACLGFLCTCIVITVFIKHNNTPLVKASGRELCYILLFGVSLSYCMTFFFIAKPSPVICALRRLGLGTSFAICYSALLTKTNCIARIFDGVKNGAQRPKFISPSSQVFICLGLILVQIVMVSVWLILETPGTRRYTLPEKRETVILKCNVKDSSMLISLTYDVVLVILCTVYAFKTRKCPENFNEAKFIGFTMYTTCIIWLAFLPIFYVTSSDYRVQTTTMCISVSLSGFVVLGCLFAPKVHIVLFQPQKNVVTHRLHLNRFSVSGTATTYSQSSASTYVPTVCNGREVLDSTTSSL
T2 sequence (P70627 whole entry): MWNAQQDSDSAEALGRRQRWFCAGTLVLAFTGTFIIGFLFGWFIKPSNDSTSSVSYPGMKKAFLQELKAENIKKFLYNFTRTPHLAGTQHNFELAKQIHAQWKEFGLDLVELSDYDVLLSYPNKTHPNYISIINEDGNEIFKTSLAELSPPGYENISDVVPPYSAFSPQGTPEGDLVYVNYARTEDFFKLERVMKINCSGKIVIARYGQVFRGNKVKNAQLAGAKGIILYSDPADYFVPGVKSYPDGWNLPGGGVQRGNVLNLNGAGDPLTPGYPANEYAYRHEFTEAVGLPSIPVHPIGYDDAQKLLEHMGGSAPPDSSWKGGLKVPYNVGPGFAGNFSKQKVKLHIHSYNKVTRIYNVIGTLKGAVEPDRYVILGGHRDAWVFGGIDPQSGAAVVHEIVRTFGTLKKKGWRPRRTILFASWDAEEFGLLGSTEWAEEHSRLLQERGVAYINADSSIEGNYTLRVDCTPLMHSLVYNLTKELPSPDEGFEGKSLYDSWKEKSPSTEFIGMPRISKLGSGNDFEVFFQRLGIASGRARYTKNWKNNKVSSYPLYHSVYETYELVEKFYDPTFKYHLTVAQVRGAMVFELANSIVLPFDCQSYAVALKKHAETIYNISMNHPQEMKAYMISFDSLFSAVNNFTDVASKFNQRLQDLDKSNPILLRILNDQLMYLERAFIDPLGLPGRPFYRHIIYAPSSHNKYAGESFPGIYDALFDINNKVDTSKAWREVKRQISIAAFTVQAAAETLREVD
NAALADase, sequence (P70627 whole entry): as above

Compound: 2-(phosphomethyl)pentanedioic acid [PMPA, reference compound]
mGluR3 activity (in words) [1]: act as an agonist at mGluR3
Neuroprotection against NMDA toxicity ([2]; NMDA 20 μM): about 25%
Neuroprotection (in words) ([2]; model C, compared with FN6 enantiomers): less effective
Glutamate and NAAG levels (in words) ([3]; rat MCAO model): decreased glutamate levels while increasing NAAG levels
Protection against injury (in words) ([3]; rats, Slusher et al.): significant protection against injury
Neuroprotection against NMDA-induced cell death [4]: 16%

Compound: O=C(O)CCC(CP(=O)(O)CC(CCC(=O)O)C(=O)O)C(=O)O (racemic) [FN6, 4,4′-phosphinicobis(butane-1,3-dicarboxylic acid)]
IC50 [5]: 0.004 µM
Neuroprotection ([6]; 300 μM): about 30%
IC50 ([7]; previous work, listed as PBBDA): 0.0217 ± 0.0021 µM
IC50 ([7]; previous work, listed as [HO2C(CH2)2CH(CO2H)CH2]2P(O)(OH)): 0.026 µM
EC50 ([8]; previous work, read-out: mGluR3 selective agonist potency): ~30 µM

Compound: N[C@@H](CC(=O)O)C(=O)N[C@@H](CC(=O)O)C(=O)O [(S)-Asp-(S)-Asp, reference compound] (H-Asp-Asp-OH)
inhibition of GCPII ([7]; at 100 μM, dipeptide, published data for comparison): 42% inhibition at 100 μM
IC50 ([7]; published data, ref. 6a): 58 µM

Compound: O=C(NC(CS)C(=O)O)NC(CS)C(=O)O [(S)-Cys-C(O)-(S)-Cys]
GCPII inhibitory activity (in words) ([9]; tested at 1 μM): Inactive at 1 μM

Compound: N[C@@H](CCC(=O)O)C(=O)N[C@@H](CCC(=O)O)C(=O)O [(S)-Glu-(S)-Glu, reference compound] (H-Glu-Glu-OH)
fold less potent than (S)Glu-C(O)-(S)Glu at GCPII [9]: 16 fold

Compound: O=C(O)CC[C@H](NC(=O)C(=O)N[C@@H](CCC(=O)O)C(=O)O)C(=O)O [(S)-Glu-C(O)-C(O)-(S)-Glu]
GCPII inhibitory activity (in words) [9]: inactive
inhibition of expressed rat GCPII ([9]; at 1 μM): 9% inbibition at 1 μM

Compound: NC1(C(=O)O)CC2CC1C2C(=O)O (stereo not shown) [ABHxD-I, 2-aminobicyclo 2.1.1 hexahe-2.5-dicarboxylic acid, reference compound]
Protection against NMDA toxicity (in words) [10]: not able to protect against NMDA toxicity
Reduction of the toxic effect of NMDA ([6]; 10 μM, NMDA 75 μM): over 40%
Protection against NMDA toxicity (in words) ([2]; model C, 10 μM, NMDA 20 μM): as effective as in model B

Compound: O=C(O)CCC(CC(=O)CC(CCC(=O)O)C(=O)O)C(=O)O (stereo not shown) [A]
mGluR3 activity (in words) [1]: retained significant mGluR3 activity

Compound: O=C(O)CC[C@H](NC(=O)N[C@@H](CCC(=O)O)C(=O)O)C(=O)O [FN11]
IC50 [9]: 0.047 µM
Vascularization of tumor (von Willebrand's factor staining) [11]: preponderance of avascular and low vascular areas

Compound: O=C(O)CC[C@@H](NC(=O)N[C@H](CCC(=O)O)C(=O)O)C(=O)O [FN13]
Neuroprotection ([2]; model C, 100 μM): about 20%

Compound: O=C(O)CC[C@H](NC(=O)N[C@H](CCC(=O)O)C(=O)O)C(=O)O [FN16]
inhibition at 100 µM ([9]; read-out: inhibition of expressed rat GCPII): 97%

Compound: CC(=O)N[C@@H](CC(=O)O)C(=O)N[C@@H](CCC(=O)O)C(=O)O [NAAG, N-acetyl-L-aspartate-L-glutamate, reference compound] (Ac-Asp-Glu-OH)
EC50 ([8]; cell lines transfected with mGluR1-6, read-out: EC50 for activation of mGluR3): 65 ± 20 µM

Compound: O=C(O)CC[C@H](NC(=O)N[C@@H](CC(=O)O)C(=O)O)C(=O)O [PC107]
IC50 ([9]; listed as (S)-Asp-C(O)-(S)-Glu): 0.046 µM and 0.0461 µM

Compound: O=C(O)CC[C@H](NC(=O)N[C@@H](CS)C(=O)O)C(=O)O [PC118]
GCPII inhibitory activity (in words) [9]: nearly as potent as (S)-Glu-C(O)-(S)-Glu
IC50 [9]: 0.0724 ± 0.0065 µM
Neuroprotection against NMDA toxicity ([2]; NMDA 20 μM): 50%

Further lines, with some results ahead:

melting point: > 142 °C
Compound: O=C(O)C[C@H](NC(=O)N[C@@H](CC(=O)O)C(=O)O)C(=O)O (hydrate or solvate) [PC103]

melting point: 108 to 110 °C
Compound: CC(C)(C)NC(=O)N[C@@H](CCC(=O)O)C(=O)O (hydrate or solvate) [PC113]

IC50 [9]: 3.8 µM
Compound: O=C(O)C[C@H](NC(=O)N[C@@H](CC(=O)O)C(=O)O)C(=O)O [PC103]

GCPII inhibitory activity (in words) [9]: inactive
inhibition at 1 µM ([9]; at 1 μM): 46%
Compound: O=C(O)CC[C@H](NC(=O)NCC(=O)O)C(=O)O [PC108]

GCPII inhibitory activity (in words) [9]: inactive
inhibition at 1 µM ([9]; at 1 μM): 10%
Compound: CC(C)(C)NC(=O)N[C@@H](CCC(=O)O)C(=O)O [PC113]

IC50 [9]: 0.101 ± 0.0193 µM
Ki ([9]; read-out: Ki against GCPII): ~0.1 µM
Compound: CC(C)(C)SC[C@H](NC(=O)N[C@@H](CCC(=O)O)C(=O)O)C(=O)O [PC120]
Neuroprotection against NMDA toxicity ([2]; NMDA 20 μM): 69%
